Measured values reported in patent US7544700B2, “Pharmaceutically active sulfonamide derivatives bearing both lipophilic and ionisable moieties as inhibitors of protein JunKinases” (Laboratoires Serono SA, priority 2000, dated 2009).

How the values were obtained:
[1] = tested on: Hela luciferase reporter-c-Jun (HLR-c-Jun) cell lines; experiment: C-Jun reporter assay; type: cell-based; conditions: Homo sapiens, MEKK-1 transfected HLR-c-Jun cells
From the text: The phosphorylation of the transcriptional factor, c-jun, by JNK in the MAP kinase signal transduction pathway can be followed via a trans-reporting system such as the commercially available PathDetect® (32).
A trans-reporting system allows one to follow, via Luciferase activity, the activation status of a fusion trans-activator protein. The trans-activator protein consists of the activation domain of the transcriptional factor of interest (c-jun) fused with a yeast transcriptional activator, GAL4 DNA binding domain (dbd). The GAL4 dbd has the advantage that no known mammalian transcriptional factors can bind to it and therefore the background noise of the assay is very low.
In the present case, Hela luciferase reporter-c-Jun (HLR-c-Jun) cell lines which constitutively express GAL4-cJun were used.
The MEKK-1 gene was inserted. MEKK-1 is a MAPKKK which triggers the activation of JNK. Expression of wild type MEKK-1 is sufficient for JNK activation (33).
Once, JNK is activated it can induce the phosphorylation of the c-jun domain of the fusion trans-activator protein (GAL4dbd-cJun) which forms a dimer. The dimer is then is able to bind to a GAL4 upstream activating sequence (GAL4 UAS) of the reporter which activates Luciferase expression.
Luciferase expression is detected by luminescence using a simple assay such as Dual-Luciferase® Reporter Assay System (34) in which Renilla is used as a “control reporter”.
Inhibition of JNK is observed as a decrease in Luciferase expression and detected by a decrease in luminescence.
HLR-c-Jun cells are cultured in DMEM High Glc supplemented with 10% FCS (Sigma), 2 mM Glutamine (Gibco), P/S, Hygromycin b 100 μg/mL and G418 250 μg/mL.
The cell suspensions are diluted with medium to give about 3.5×10^6 cells/mL and […] of cell suspension are put onto 2 10 cm culture dishes containing 9 mL of culture medium.
Transfections • Control: 0.2 μg pTK Renilla, 5.8 μg pBluescript KS, 500 μl OPTIMEM (GOBCO), 18 μl Fugene 6. • Induced: 0.1 μg pMEKK1, 0.2 μg pTK Renilla, 5.7 μg pBluescript KS, 500 μl OPTIEM (GIBCO), 18 μl Fugene 6 30′ RT.
The transfection mixture is added to the plated cells. The plates are incubated over night at 37° C. in a humidified atmosphere of 5% CO2 in air.
A 96 wells plate (100 μl of culture medium per well) is prepared. Negative control (vehicle): 2 μl of DMSO is added to the 100 μl (in triplicate). […]
The medium is removed from the plate and the cells are washed two times with 100 μl PBS. […] The luminometer reading is recorded.
−50 μl of Luciferase Assay Reagent II are injected and readings are recorded at 5 and 10 minutes.
50 μl of Stop & Glo® Reagent are injected and readings are recorded at 5 and 10 minutes.
The relative luminescence is then measured: RLU Luciferase/RLU Renilla.

[2] = tested on: IL-2 release by (PMA+Ionomycin)-stimulated Jurkat cells; experiment: IL-2 release assay (IL-2 ELISA); type: cell-based; conditions: Homo sapiens; PMA + Ionomycine stimulated Jurkat cells
Method: The Ability of the Compounds According to Formula I to Modulate the Inflammatory Response by Inhibiting the Release of IL-2 was Assessed Using the Following Protocol
JNK pathway activation triggers the production of inflammatory cytokines such as IL-2. JNK can be activated by external stimuli such as PMA and Ionomycine and IL-2 production can be measured via an IL-2 ELISA test. Comparative measurements with and without the compounds of the invention according to the following protocol measure the ability of the compounds to prevent to stress-mediated IL-2 release.
Jurkat cells, a human T cell leukemia cell line (American Type Culture Collection # TIB 152) were cultured in RPMI 1640 medium (Gibco, BRL) supplemented with 10% of […] fetal calf serum (FCS), Glutamine and Penstrep. The cell suspension in the medium is diluted to give 2.10^6 cells/mL. The cells were plated (2.10^5 cells/well) on a 96-well plate containing different concentrations of a compound according to formula I (final concentration of compounds, 10, 3, 1, 0.3, 0.1 μM). This mixture is incubated 30 minutes at 37° C. in a humidified CO2 atmosphere. Cells were then treated with 10 μl PMA (Phorbolmyristate-13 Acetate-12)+Ionomycine (0.1 μM and 1 μM final concentration) in all wells except negative control. In wells without compounds, 10 μl of RPMI 2% DMSO (=0.1% final) is added. Cells are incubated 24 hours at 37° C. and then the supernatant harvested (freeze at −20° C. if not used the same day) prior to performing IL-2 ELISA test on the supernatant.
IL-2 release into the medium by (PMA+Iononomycin)-stimulated Jurkat cells, in presence or absence of test compounds may be assayed by ELISA. Following the procedure described below.
Monoclonal anti-human IL-2 antibody (MAB602) (capture), biotinylated anti-human IL-2 antibody (BAF202) (detection) and recombinant human IL-2 (202-IL-010) (standard) from From R&D Systems are used. […]
• 1. […] Optical density is measured using a microtiter plate reader set to 450 nm with correction at 570 nm.

[3] = molecular target: GST-JNK3 (Homo sapiens, UniProt P53779); experiment: JNK3 in vitro assay (33P incorporation into c-jun, SPA); type: biochemical
Method: (§1) The phosphorylation of c-jun by JNK2 or JNK3 may be followed by monitoring the incorporation of ^33P into c-jun following the protocol below. The inhibitory activity of the compounds according to formula I, in respect of c-jun phosphorylation through JNK, is determined by calculating the phosphorylation activity of a JNK in the presence or absence of the test compounds according to formula I.
(§2) JNK3 and/or -2 assays are performed in 96 well NM plates: incubation of 0.5 μg of recombinant, pre-activated GST-JNK3 or GST-JNK2 with 1 μg of recombinant, biotinylated GST-c-Jun and 2 μM ^33γ-ATP (2 nCi/μl), in the presence or absence of compounds according to formula I and in a reaction volume of 50 μl containing 50 mM Tris-HCl, pH 8.0; 10 mM MgCl2; 1 mM Dithiothreitol, and 100 μM NaVO4. The incubation is performed for 120 min. at R.T and stopped upon addition of 200 μl of a solution containing 250 μg of Streptavidine-coated SPA beads (Amersham, Inc.)*, 5 mM EDTA, 0.1% Triton X-100 and 50 μM ATP, in phosphate saline buffer. After incubation for 60 minutes at RT, beads are sedimented by centrifugation at 1500×g for 5 minutes, resuspended in 200 μl of PBS containing 5 mM EDTA, 0.1% Triton X-100 and 50 μM ATP and the radioactivity measured in a scintillation β counter, following sedimentation of the beads as described above. By replacing biotinylated GST-c Jun with biotinylated GST-1ATF2 or biotinylated myelin basic protein, this assay may also be used to measure inhibition of pre-activated p38 and ERK MAP Kinases, respectively.

[4] = molecular target: GST-JNK2 (Homo sapiens, UniProt P45984); experiment: JNK2 in vitro assay (33P incorporation into c-jun, SPA); type: biochemical
Method: as §1, §2

[5] = molecular target: JNK1 (Homo sapiens, UniProt P45983); experiment: JNK1 inhibition; type: biochemical; conditions: read-out: inhibition (IC50) with regard to JNK1
[6] = Solubility in water; type: physicochemical; conditions: pH 7.4, aqueous buffer, pH of 7.4 at room temperature
Method: The compounds have been assessed in respect of their solubility in water, at a pH of 7.4 at room temperature. In general the solubility of compounds of formula (I) is in a range of at least 50 μg/mL solvent, more preferably of at least 100 μg/mL solvent. For instance compounds (63), (163), (198) display a solubility in water of at least 200 μg/mL solvent.

Sequence of GST-JNK3 (P53779 whole entry): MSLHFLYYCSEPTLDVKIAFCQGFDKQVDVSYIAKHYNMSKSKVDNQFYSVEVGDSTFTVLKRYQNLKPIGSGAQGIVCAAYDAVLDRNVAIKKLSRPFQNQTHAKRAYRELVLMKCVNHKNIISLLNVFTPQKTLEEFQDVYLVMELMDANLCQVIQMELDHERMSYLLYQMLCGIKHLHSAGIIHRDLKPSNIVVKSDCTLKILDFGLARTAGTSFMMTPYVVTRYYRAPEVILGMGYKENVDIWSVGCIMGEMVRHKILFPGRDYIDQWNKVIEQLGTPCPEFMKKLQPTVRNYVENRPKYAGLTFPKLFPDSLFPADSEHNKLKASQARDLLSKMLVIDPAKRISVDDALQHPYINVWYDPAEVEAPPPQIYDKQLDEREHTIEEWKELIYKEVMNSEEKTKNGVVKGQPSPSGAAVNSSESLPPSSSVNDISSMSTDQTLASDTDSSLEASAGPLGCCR
Sequence of GST-JNK2 (P45984 whole entry): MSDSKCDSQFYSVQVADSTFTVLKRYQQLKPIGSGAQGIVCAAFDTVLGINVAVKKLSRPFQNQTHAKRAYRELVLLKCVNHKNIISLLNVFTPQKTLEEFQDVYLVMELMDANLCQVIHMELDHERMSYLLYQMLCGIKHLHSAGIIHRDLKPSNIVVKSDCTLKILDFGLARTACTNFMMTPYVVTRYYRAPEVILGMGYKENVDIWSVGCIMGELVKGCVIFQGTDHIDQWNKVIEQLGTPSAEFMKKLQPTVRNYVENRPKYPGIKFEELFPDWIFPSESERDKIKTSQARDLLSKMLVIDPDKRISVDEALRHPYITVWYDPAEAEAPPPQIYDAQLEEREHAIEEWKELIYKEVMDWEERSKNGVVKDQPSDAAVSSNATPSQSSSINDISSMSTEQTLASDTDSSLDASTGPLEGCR
Sequence of JNK1 (P45983 whole entry, species assumed): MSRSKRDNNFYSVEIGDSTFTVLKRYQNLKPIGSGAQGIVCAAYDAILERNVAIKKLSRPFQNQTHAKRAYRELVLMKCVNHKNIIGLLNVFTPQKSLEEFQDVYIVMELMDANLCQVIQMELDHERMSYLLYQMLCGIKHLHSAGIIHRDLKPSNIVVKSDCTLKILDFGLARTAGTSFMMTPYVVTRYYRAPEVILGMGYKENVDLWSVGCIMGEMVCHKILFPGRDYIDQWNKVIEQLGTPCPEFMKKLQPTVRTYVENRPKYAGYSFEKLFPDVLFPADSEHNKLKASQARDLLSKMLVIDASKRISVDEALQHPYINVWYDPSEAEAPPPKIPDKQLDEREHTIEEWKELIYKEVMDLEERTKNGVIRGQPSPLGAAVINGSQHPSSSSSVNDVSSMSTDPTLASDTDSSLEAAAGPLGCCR

Compound | IC50 [3] | IC50 [4] | further results
COc1cccc(C(=O)NCc2ccc(S(=O)(=O)N3CCC(NCc4c(C)c(C)c(C)c(C)c4C)CC3)s2)c1 [Example 10, 3-methoxy-N-{[5-({4-[(2,3,4,5,6-pentamethylbenzyl)amino]piperidin-1-yl}sulfonyl)thien-2-yl]methyl}benzamide] |  |  | IC50 [1]: < 0.7 µM
CCCOc1ccc(CNC2CCN(S(=O)(=O)c3ccc(CNC(=O)c4cccc(OC)c4)s3)CC2)cc1 [Example 11, 3-methoxy-N-{[5-({4-[(4-propoxybenzyl)amino]piperidin-1-yl}sulfonyl)thien-2-yl]methyl}benzamide] |  |  | IC50 [1]: < 0.7 µM
COc1cccc(C(=O)NCc2ccc(S(=O)(=O)N3CCC(NCc4ccc(S(=O)(=O)C(F)(F)F)cc4)CC3)s2)c1 [Example 64, 3-methoxy-N-[(5-{[4-({4-[(trifluoromethyl)sulfonyl]benzyl}-amino)piperidin-1-yl]sulfonyl}thien-2-yl)methyl]benzamide] |  |  | IC50 [2]: < 0.8 µM
CCCCCCCCCCNC1CCN(S(=O)(=O)c2ccc(CNC(=O)c3cccc(OC)c3)s2)CC1 [Example 86, 3-methoxy-N-[(5-{[4-(decylamino)piperidin-1-yl]sulfonyl}thien-2-yl)methyl]benzamide] |  |  | IC50 [5]: 0.1 to 0.7 µM
O=C(NCc1ccc(S(=O)(=O)N2CCC(NCc3ccc(S(=O)(=O)C(F)(F)F)cc3)CC2)s1)c1ccc(Cl)cc1 [Example 117, 4-chloro-N-[(5-{[4-({4-[(trifluoromethyl)sulfonyl]benzyl}amino)-1-piperidinyl]sulfonyl}-2-thienyl)methyl]benzamide] |  |  | IC50 [1]: < 0.7 µM
CCCCCCN(CC1CCCCC1)C1CCN(S(=O)(=O)c2ccc(CNC(=O)c3ccc(Cl)cc3)s2)CC1 [Example 155, 4-chloro-N-{[5-({4-[(cyclohexylmethyl)(hexyl)-amino]piperidin-1-yl}sulfonyl)thien-2-yl]methyl}-benzamide] | < 0.6 µM | < 0.6 µM | 
CCCCCCN(C)C1CCN(S(=O)(=O)c2ccc(CNC(=O)c3ccc(Cl)cc3)s2)CC1 [Example 163, 4-chloro-N-{[5-({4-[hexyl(methyl)amino]piperidin-1-yl}sulfonyl)thien-2-yl]methyl}benzamide] |  |  | solubility [6]: ≥ 0.2 mg/mL

Second part, led by results:

IC50 [3] | IC50 [4] | Compound | further results
< 0.6 µM | < 0.6 µM | O=C(NCc1ccc(S(=O)(=O)N2CCC(NCCC3CCCCC3)CC2)s1)c1ccc(Cl)cc1 [Example 70, 4-chloro-N-{[5-({4-[(2-cyclohexylethyl)amino]piperidin-1-yl}sulfonyl)thien-2-yl]methyl}benzamide] | 
< 0.6 µM |  | COc1cccc(C(=O)NCc2ccc(S(=O)(=O)N3CCCC(NCCC4CCCCC4)CC3)s2)c1 (stereo not drawn) [Example 132, N-{[5-({4-[(2-cyclohexylethyl)amino]azepan-1-yl}sulfonyl)thien-2-yl]methyl}-3-methoxy-benzamide] | 
< 0.6 µM | < 0.6 µM | COc1cccc(C(=O)NCc2ccc(S(=O)(=O)N3CCC(NCCCN4CCOCC4)C3)s2)c1 (stereo not drawn) [Example 176, 3-methoxy-N-{[5-({3-[(3-morpholin-4-ylpropyl)amino]pyrrolidin-1-yl}sulfonyl)thien-2-yl]methyl}benzamide] | 
< 0.6 µM | < 0.6 µM | CCCCCNCC1CCN(S(=O)(=O)c2ccc(CNC(=O)c3cccc(OC)c3)s2)CC1 [Example 195, 3-methoxy-N-{[5-({4-[(pentylamino)methyl]piperidin-1-yl}sulfonyl)-thien-2-yl]methyl}benzamide] | 
